The results in this text go back to ChEMBL document CHEMBL1201862, “PubChem BioAssay data set” (2004).

A short description of experiment [1]: HEp-2 cell cytotoxicity, dose response, cytotoxicity control for RSV inhibitor project, HTS (AID 2410). The experiment is classed as functional. Conditions: human respiratory syncytial virus.
Experiment [2] has as its system Vero. Nature of the experiment: cells. The experiment is classed as functional, cell-based. Conditions: Chlorocebus sabaeus.
Experiment [3] can be described thus: cells.
The nature of experiment [4]: cytotoxicity in HEK-293T cells, dose response, cytotoxicity control for TCR NF-kB inhibitor project, luminescence, T-cell screen hits (AID 489026).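 Also: cells exposed to compound about 14 hours before the viability readout.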 In kind it is functional, cell-based.
Experiment [5] addresses Heat shock protein HSP 90-alpha (Homo sapiens, UniProt P07900). The experiment is classed as functional, organism-based.
For experiment [6], the system named is Vero. Nature of the experiment: cells. In kind it is functional. The settings on record: Chlorocebus sabaeus.
Experiment [7] can be described thus: THP-1 cell cytotoxicity, dose response, cytotoxicity control for non-replicating M. tuberculosis project (AID 489025). The experiment is classed as functional.
Experiment [8] is described as follows: Luminescence Cell-Based Dose Retest to Confirm Inhibitors of Cancer Stem Cells. [Related pubchem assays (depositor defined):AID2717, AID2721]. The experiment is classed as functional. Conditions: Homo sapiens.
Another experiment has as its target T1, Caspase-3 (Homo sapiens, UniProt P42574).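 Also: Dose-response selectivity test against caspase-3 for candidate inhibitors of sentrin-specific proteases (SENPs).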
T1 sequence (P42574 whole entry): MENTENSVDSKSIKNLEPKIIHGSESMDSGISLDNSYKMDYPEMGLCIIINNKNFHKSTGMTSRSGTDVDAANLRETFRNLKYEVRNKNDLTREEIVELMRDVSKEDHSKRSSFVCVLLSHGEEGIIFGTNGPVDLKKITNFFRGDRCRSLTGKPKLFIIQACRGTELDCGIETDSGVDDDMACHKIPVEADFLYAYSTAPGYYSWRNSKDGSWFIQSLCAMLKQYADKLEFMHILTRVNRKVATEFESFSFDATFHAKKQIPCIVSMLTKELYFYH
In kind it is functional.

Experiment [9] in a line: Vero E6 cell cytotoxicity, dose response, cytotoxicity control for non-replicating M. tuberculosis project, secondary assay (AID 492998). In kind it is functional, VeroE6. Conditions: Vero C1008.
Experiment [10] has as its target T2, Sentrin-specific protease 7 (Homo sapiens, UniProt Q9BQF6).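 Also: Luminescence-based dose-response confirmation of ultra-high-throughput screening hits, measuring inhibition of SENP7.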
T2 sequence (Q9BQF6 whole entry): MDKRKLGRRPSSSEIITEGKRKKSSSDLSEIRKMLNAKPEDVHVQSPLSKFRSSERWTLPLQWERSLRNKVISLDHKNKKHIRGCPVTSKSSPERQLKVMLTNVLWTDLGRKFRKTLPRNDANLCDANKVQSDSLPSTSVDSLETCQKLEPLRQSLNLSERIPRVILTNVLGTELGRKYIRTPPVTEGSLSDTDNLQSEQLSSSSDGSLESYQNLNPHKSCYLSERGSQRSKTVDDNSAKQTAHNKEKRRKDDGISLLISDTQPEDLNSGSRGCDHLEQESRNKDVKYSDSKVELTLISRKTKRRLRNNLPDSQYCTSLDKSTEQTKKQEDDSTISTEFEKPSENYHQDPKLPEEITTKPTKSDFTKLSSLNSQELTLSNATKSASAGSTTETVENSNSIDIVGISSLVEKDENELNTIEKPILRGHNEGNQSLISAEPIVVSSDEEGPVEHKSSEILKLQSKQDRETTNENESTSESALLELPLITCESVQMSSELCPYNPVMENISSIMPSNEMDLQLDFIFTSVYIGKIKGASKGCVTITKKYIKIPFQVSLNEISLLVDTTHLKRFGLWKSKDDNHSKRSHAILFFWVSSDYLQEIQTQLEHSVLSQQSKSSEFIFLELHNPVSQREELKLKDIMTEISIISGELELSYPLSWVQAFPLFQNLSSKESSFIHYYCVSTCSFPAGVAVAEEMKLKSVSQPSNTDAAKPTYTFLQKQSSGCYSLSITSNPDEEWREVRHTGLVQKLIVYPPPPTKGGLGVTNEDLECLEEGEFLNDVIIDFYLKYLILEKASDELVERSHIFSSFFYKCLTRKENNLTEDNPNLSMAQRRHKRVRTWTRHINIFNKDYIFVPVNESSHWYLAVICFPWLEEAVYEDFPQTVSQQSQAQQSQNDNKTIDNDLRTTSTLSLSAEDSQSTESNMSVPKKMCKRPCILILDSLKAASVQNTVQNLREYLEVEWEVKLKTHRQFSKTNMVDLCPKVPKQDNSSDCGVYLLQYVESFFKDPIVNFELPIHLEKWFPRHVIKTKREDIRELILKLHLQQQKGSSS
In kind it is functional.

For experiment [11], the target named is T3, Sentrin-specific protease 6 (Homo sapiens, UniProt Q9GZR1).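 Also: Luminescence-based dose-response confirmatory assay of SENP6 inhibition, following up an ultra-high-throughput screen.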
T3 sequence (Q9GZR1 whole entry): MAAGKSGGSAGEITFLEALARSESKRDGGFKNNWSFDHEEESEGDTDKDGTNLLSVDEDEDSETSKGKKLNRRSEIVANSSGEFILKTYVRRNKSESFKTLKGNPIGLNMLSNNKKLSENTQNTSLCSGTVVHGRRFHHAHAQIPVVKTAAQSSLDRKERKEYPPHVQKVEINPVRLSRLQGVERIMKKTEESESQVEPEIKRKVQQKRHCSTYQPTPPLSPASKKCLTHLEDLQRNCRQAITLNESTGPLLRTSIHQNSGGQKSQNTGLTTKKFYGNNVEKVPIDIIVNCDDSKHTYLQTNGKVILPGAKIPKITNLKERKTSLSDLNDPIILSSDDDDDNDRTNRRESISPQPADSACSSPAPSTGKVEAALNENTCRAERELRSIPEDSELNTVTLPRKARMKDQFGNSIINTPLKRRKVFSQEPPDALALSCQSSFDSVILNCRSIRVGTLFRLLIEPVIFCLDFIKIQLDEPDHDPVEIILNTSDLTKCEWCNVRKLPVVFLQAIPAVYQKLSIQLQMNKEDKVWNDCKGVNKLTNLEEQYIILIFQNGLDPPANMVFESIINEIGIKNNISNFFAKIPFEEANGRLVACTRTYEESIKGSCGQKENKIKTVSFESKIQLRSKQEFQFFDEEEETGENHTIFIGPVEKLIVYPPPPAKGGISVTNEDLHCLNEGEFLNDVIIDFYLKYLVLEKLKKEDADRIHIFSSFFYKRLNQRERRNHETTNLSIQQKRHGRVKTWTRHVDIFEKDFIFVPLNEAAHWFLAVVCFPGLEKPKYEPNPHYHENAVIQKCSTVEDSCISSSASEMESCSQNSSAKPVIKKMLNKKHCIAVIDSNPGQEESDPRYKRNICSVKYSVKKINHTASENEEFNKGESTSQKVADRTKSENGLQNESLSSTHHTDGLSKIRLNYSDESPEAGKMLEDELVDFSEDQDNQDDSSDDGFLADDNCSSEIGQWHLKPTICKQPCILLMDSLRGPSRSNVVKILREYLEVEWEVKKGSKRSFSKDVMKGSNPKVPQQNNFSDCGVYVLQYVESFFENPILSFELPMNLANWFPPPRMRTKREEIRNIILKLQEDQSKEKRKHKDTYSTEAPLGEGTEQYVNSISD
In kind it is functional.

In experiment [12] the target is T4, Sentrin-specific protease 8 (Homo sapiens, UniProt Q96LD8).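 Also: luminescence read-out of SENP8 inhibition, dose-response confirmation following an ultra-high-throughput screen.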
T4 sequence (Q96LD8 whole entry): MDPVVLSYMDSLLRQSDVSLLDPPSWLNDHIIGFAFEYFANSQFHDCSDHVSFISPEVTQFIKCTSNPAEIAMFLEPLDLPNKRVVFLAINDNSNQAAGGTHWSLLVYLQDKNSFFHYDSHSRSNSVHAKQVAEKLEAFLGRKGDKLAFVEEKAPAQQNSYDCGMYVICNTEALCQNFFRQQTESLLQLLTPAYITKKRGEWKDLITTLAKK
In kind it is functional.

A short description of experiment [13]: cells. The experiment is classed as functional.
The subject of a further experiment is INS1. Nature of the experiment: beta cell apoptosis inhibitors, cytokine rescue, dose response, luminescence, retest (AID 449756).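 Also: cell death triggered by IL-1 beta plus TNF-alpha plus IFN-gamma mixture; protective hits raise ATP signal compared with cytokine alone wells.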 Conditions: Rattus norvegicus. In kind it is functional, cell-based.
Experiment [14] deals with Streptococcus sp. 'group A'. Nature of the experiment: growth inhibition of control SK(-) GAS strain, dose response, counter-screen for streptokinase expression inhibitor project, luminescence, kanamycin, BacTiterGlo, confirmation (AID 1900). The experiment is classed as functional, organism-based.
In another experiment the test system is Streptococcus. Nature of the experiment: Group A Streptococcus viability loss, dose response, counter-screen for streptokinase expression inhibitor project, luminescence, BacTiterGlo (AID 1915).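 Also: potency for reduction of bacterial viability or growth.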 In kind it is functional, organism-based.
The nature of experiment [15]: microbe, parasite or virus in culture. In kind it is functional. Conditions: Mycobacterium tuberculosis.

Active and inactive are the calls of the source.

For the molecule `COc1ccccc1C1CCCN1Cc1nc(-c2ccc(C)s2)oc1C` (configuration not stated), in experiment [1], the CC50 is 20.2 µM (active). Besides, the IC50 was 10.9 µM (active) with Vero [2] and 33.3 µM (active) in “cells [3]”.
Regarding `O=S(=O)(Nc1ccc(F)cc1Cl)c1ccc(-c2cnc(C3CC3)o2)cc1`, the IC50 in experiment [4] was > 80 µM (inactive).
As for `Cc1cccc(NC(S)=NCC23C=CC(O2)C2C(=O)N(c4ccc(Cl)cc4)C(=O)C23)c1` (configuration not stated), in [5], the AC50 was 15 µM (active).
Consider `O=C(CCN1C(=O)/C(=C/c2ccc(F)cc2)SC1=S)NCCc1ccc(O)cc1`, for which the half-maximal inhibitory concentration (IC50) in the experiment with Vero [2] is > 25 µM (active). In addition, the CC50 with Vero [6] is 24.1 µM (active).
With `O=C(Nc1ccn(Cc2ccccc2F)n1)c1ccc(COc2ccc(Br)cc2)cc1`, the IC50 in experiment [4] is > 80 µM (inactive).
For the molecule `O=C1C=C(Nc2ccc(F)cc2)c2ccccc2C1=O`, the CC50 in experiment [7] was 19 µM (active); in [9] it was 9.15 µM (active). The AC50 is 3.19 µM (active) in experiment [8] and 3.06 µM (active) in the experiment on INS1. Moreover, the IC50 on Caspase-3 was 13.9 µM (active); in [10], 9.46 µM (active); in experiment [11] it was 2.94 µM (active); in experiment [12], 4.81 µM (active); in the experiment “cells [13]” it was 4.25 µM (active).
Consider `OC(Cn1cncn1)(c1ccc(F)cc1)c1ccc(Cl)cc1` (configuration not stated), for which, in [5], the AC50 was < 0.195 µM (active).
For `CC(C)c1ccc(OCC(=O)NNC(=S)NC(=O)c2ccco2)c(Br)c1`, the EC50 in experiment [14] is < 0.06 µM (active); in the experiment with Streptococcus, 0.141 µM (active). Besides, in the experiment with Vero [2], the IC50 was > 25 µM (active). In addition, in the experiment with Vero [6], the CC50 was > 25 µM (active).
As for `Cc1cc(/C=C/c2ccc3cc(N(C)C)ccc3[n+]2C)c(C)n1-c1ccccc1`, the CC50 in [15] was 2.28 µM (active). Besides, in [5], the AC50 was 5.91 µM (active).
For `CCCc1c(NC(=O)Nc2ccc(Cl)cc2Cl)cnn1-c1ccccc1`, the IC50 in the experiment with Vero [2] is 17.9 µM (active). Further, in the experiment with Vero [6], the CC50 was > 25 µM (active).
Take `CCCCCCCCCC(=O)N[C@@H]1c2cc(OC)c(OC)cc2C[C@H]1OCc1ccccc1`: the IC50 in the experiment on Vero [2] was > 25 µM (active).
